Test results taken from publication PMC5884628 (International journal of biological macromolecules, 2016).

What was measured:
[1] = system: burns and acute infections; settings: ref [26], [27]; cited from earlier work
[2] = ref [26], [27]; cited from earlier work
[3] = system: wild-type membrane bound F1Fo ATP synthase; assay: Inhibition of membrane bound F1Fo ATPase activity by venom peptides; assay type: biochemical, Escherichia coli; settings: 60 min preincubation at RT, pH 8.0; Fig. 2
[4] = system: Pseudomonas aeruginosa; settings: ref [26], [27], cited from earlier work
[5] = system: Staphylococcus aureus; settings: ref [26], [27], cited from earlier work
[6] = system: null E. coli strain (pUC118/DK8); assay: Growth of null E. coli in the presence of venom peptides; assay type: cell-based, Escherichia coli; settings: null strain in comparison to wild-type
[7] = system: human pathogenic bacteria; multi-drug resistant bacterial strains; settings: broad spectrum of microbes; ref [26], [27]; cited from earlier work
[8] = system: erythrocytes; settings: ref [26], [27]; cited from earlier work
[9] = system: P. aeruginosa; settings: rat models; ref [26], [27]; cited from earlier work
[10] = system: wild-type E. coli strain (pBWU13.4/DK8); assay: Growth of wild-type E. coli in the presence of venom peptides; assay type: cell-based, Escherichia coli; settings: wild-type in comparison to null strain
[11] = system: Escherichia coli; settings: ref [26], [27]; cited from earlier work
[12] = system: melanoma cell; settings: ref [31]; cited from earlier work
[13] = system: E. coli ATP synthase; settings: ref [18], [19]; cited from earlier work
[14] = system: E. coli; settings: ref [18], [19]; cited from earlier work

Substance | effectiveness in burns and acute infections [1] | cytotoxic activity [2] | inhibition of ATP synthase (in words) [3] | effectiveness against drug-resistant Pseudomonas aeruginosa ([4]; drug-resistant) | time to kill P. aeruginosa [4] | effectiveness against drug-resistant Staphylococcus aureus ([5]; drug-resistant) | time to kill S. aureus [5] | inhibition of null E. coli (in words) [6] | antimicrobial activity in comparison to gentamicin, ampicillin, or bacitracin [7] | hemolytic activity [8] | P. aeruginosa colony formation [9] | subsequent infection and inflammation [9] | inhibition of wild-type E. coli (in words) [10] | effectiveness against drug-resistant Escherichia coli [11] | melanoma cell proliferation [12] | inhibition of E. coli ATP synthase [13] | E. coli growth [14]
KFFRKLKKSVKKRAKEFFKKPRVIGVSIPF [BF-30] | effective | no obvious hemolytic or cytotoxic activity | strong inhibition of ATP synthase | effective | less than 120 minutes | effective | less than 120 minutes | partial inhibition | stronger antimicrobial activity | no obvious hemolytic | significantly reduced | prevented | potent inhibition | effective | selectively inhibit melanoma cell proliferation | – | –
melittin | – | – | – | – | – | – | – | – | – | – | – | – | – | – | – | potently inhibit | abrogation of E. coli growth
